Data as given in article PMC3694885, “Activity of Bradykinin B2 Receptor Is Regulated by Long-Chain Polyunsaturated Fatty Acids” (PLoS ONE, 2013).

Target: T1, bradykinin B2 receptor (B2R) (Homo sapiens, UniProt P30411)
T1 construct: gene BDKRB2; B2R transfected in HEK293 cells
T1 sequence (P30411 1-391): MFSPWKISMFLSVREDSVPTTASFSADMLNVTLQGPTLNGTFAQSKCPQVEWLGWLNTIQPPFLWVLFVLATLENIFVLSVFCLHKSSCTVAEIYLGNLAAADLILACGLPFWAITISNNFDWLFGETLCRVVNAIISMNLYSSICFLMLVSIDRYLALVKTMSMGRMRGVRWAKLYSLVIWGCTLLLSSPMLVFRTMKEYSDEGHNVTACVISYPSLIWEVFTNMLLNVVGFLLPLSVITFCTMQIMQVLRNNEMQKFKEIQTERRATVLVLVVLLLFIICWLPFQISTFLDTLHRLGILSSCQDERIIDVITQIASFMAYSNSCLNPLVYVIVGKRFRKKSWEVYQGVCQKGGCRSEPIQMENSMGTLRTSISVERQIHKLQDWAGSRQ
Experiment: B2R-dependent ERK phosphorylation in transfected HEK293, blocked by the B2R antagonist HOE-140
Format: cell-based

CC/C=C\C/C=C\C/C=C\C/C=C\C/C=C\C/C=C\CCC(=O)O [DHA, docosahexaenoic acid]
B2R-dependent ERK phosphorylation in transfected HEK293, blocked by the B2R anta: EPA or DHA dependent ERK phosphorylation was inhibited by the selective B2R antagonist.
